Consider one molecule from patent publication US20080262044A1, “Pesticidal Mixtures” (Syngenta Participations AG, priority 2005, published 2008).

Assay [1] deals with Aphis craccivora (nymphs). Put plainly: Action against Aphis craccivora (nymphs), bean leaf disks. The format is in vivo. As to conditions: foliar, 96 h, Table B4, Pyroquilon 1 ppm, WP 25, nymphs on bean leaf disks, after four days. The procedure:
Fourteen day old bean plants (Vicia faba var. Wittkiens) were sprayed with 60 ml sample solution. The following day 3.5 cm leaf disks were cut and placed in petri dishes containing 2 ml agar (2%) and 5-10 adult aphids placed on the leaves. Petri dishes were covered with gauze and closed with a lid and placed up-side down. The following day all adult aphids were removed and only nymphs left on the leaf at a temperature of 20° C., 60% relative humidity and 16L:8D conditions. Assessment of dead and alife aphids performed after four days. (3 replicates per treatment).

A further assay concerns Spodoptera littoralis L2. Put plainly: Action against Spodoptera littoralis L2 (sprayed cotton leaves, petri dish). The format is in vivo. The conditions noted are these: 96 h. On the procedure:
The following day leaves were placed in petri dishes containing a moist filter paper and 10 L2 larvae placed on the leaves. Petri dishes were covered with gauze and closed with a lid and left at a temperature of 25° C., 40-60% relative humidity and 16L:8D conditions. Assessment of dead and alife larvae was performed after four days. (30 insects assessed per treatment).

With `O=C1CCc2cccc3c2N1CC3` [Pyroquilon, pyroquilon], the mortality at 1 ppm in assay [1] worked out at 3.3%; in the assay with Spodoptera littoralis L2 (Table B1, Pyroquilon 1 ppm, WP 25, L2 larvae on cotton leaves, after four days) it was 6.7%. The mortality at 10 ppm with Spodoptera littoralis L2 (Table B3, Pyroquilon 10 ppm, WP 25, after four days) stood at 6.7%.
